Measurements published in patent US20230203060A1 (GENFLEET THERAPEUTICS (SHANGHAI) INC., priority 2020, published 2023).
Like-named read-outs stand apart in the source and are kept apart here.

What was measured:
Format in all cases: cell-based, human
[1] = system: KRAS G12C mutant NCI-H358 cells; experiment: Cell proliferation inhibition experiment, 3D spheroid, CellTiter-Glo, NCI-H358; conditions: NCI-H358 (KRAS G12C mutant) 3D spheroid, 5 days with compound, CellTiter-Glo, read-out: H358 IC50
Description: (§1) Raw materials and instruments: NCI-H358 purchased from ATCC; article number: CRL-5807; batch number: 70010825; A549 purchased from ATCC; article number: CCL-185; batch number: 70007820; RPMI1640 purchased from Gibco; article number: 11875-093; batch number: 2152748; F-12K purchased from Gibco; article number: 21127-022; batch number: 2185853; FBS purchased from Gibco; article number: 10099-141; batch number: 2109290CP; PS purchased from Gibco; article number: 15140-122; batch number: 2145451; Trypsin-EDTApurchased from Gibco; article number: 25200-072; batch number: 2085552; CellTiter Glo working solution purchased from Promega; article number: G9683; batch number: 398478; DMSO purchased from VWR AMRESCO; article number: 0231-500ML; batch number: 18C0656168; 384-well spheroid plate purchased from Corning; article number: 3830; batch number: 27519032; white opaque 384-well plate purchased from Corning; article number: 3570; batch number: 26819023; microplate reader purchased from PerkinElmer; model: Envision MLD2105-0020; equipment number 1050369.
(§2) NCI-H358 is a KRAS G12C mutant human non-small cell lung cancer cell line, cultured in 10% FBS RPMI-1640+1% PS culture medium; and A549 is a KRAS G12S mutant human lung adenocarcinoma cell line, cultured in 10% FBS F-12K+1% PS culture medium. Cells at logarithmic growth stage were taken, digested with trypsin-EDTA, then collected and counted. H358 was adjusted to 1.8 E4 cells/mL with 2% FBS RPMI-1640 culture medium, and A549 was adjusted to 8.9 E3 cells/mL with 2% FBS F-12K culture medium; 800 (45 μL) H358 or 400 (45 μL) A549 were inoculated respectively in a 384-well spheroid plate and cultured overnight to establish a 3D cell model. A 3.16-fold gradient concentration stock solution of 1000× compound was prepared with DMSO, and diluted 100-fold to 10× compound stock solution with 2% FBS culture medium. On the second day after cell inoculation, 5 μL of 10× compound stock solution was added to each cell culture well, with a final concentration of 1× and a DMSO content of 0.1%. DMSO was used as experimental control (control), and 2% FBS culture medium was used as blank control (blank). After 5 days of compound cell culture, 25 μL of CellTiter-Glo working solution was added to each well, mixed well at 400 rpm and incubated for 30 minutes. After standing at room temperature for 30 minutes, 40 μL of the mixed solution was transferred to a white opaque 384-well plate, and the luminescence chemiluminescence value was read with a microplate reader. The cell proliferation inhibition rate IR (%)=(RLU control -RLU compound)/(RLU control -RLU blank) x100% was calculated. The gradient dilution concentration of the compound and the corresponding cell proliferation inhibition rate were fitted by Prism 6 four-parameter method, and the IC50 value was calculated. The inhibitory activity of the compounds prepared in the above embodiments of the present disclosure on KRAS G12C mutant NCI-H358 cells was 0.0001 μM to 0.5 μM; the inhibitory activity of some compounds on KRAS G12C mutant NCI-H358 cells was 0.001 μM to 0.1 μM or 0.001 μM to 0.05 μM.

[2] = system: A549 cells (KRAS G12S mutant); experiment: Cell proliferation inhibition experiment, 3D spheroid, CellTiter-Glo, A549; conditions: A549 (KRAS G12S mutant) 3D spheroid, 5 days with compound, CellTiter-Glo, read-out: A549 IC50
Description: as §1, §2

[3] = system: KRAS G12C mutant MIA PaCa-2 cells; experiment: Cell proliferation inhibition experiment, 3D spheroid, CellTiter-Glo, MIA PaCa-2; conditions: 3D cell model in 384-well spheroid plate, 5 days, CellTiter-Glo, read-out: MIA-PaCa2 IC50
Description: Raw materials and instruments: MIA PaCa-2 purchased from ATCC; article number: CRL-1420; batch number: 63143594; DMEM purchased from Gibco; article number: 11995-065; batch number: 2186878; FBS purchased from Gibco; article number: 10099-141; batch number: 2109290CP; Horse Serum purchased from Gibco; article number: 16050-122; batch number: 1818976; PS purchased from Gibco; article number: 15140-122; batch number: 2145451; Trypsin-EDTA purchased from Gibco; article number: 25200-072; batch number: 2085552; CellTiter Glo working solution purchased from Promega; article number: G9683; batch number 398478; DMSO purchased from VWR AMRESCO; article number: 0231-500ML; batch number: 18C0656168; 384-well spheroid plate purchased from Corning; article number: 3830; batch number: 27519032; white opaque 384-well plate purchased from Corning; article number: 3570; batch number: 26819023; microplate reader purchased from PerkinElmer; model: Envision MLD2105-0020; equipment number 1050369.
MIA PaCa-2 is a KRAS G12C mutant human pancreatic cancer cell line, cultured in 10% FBS+2.5% Horse Serum DMEM+1% PS culture medium; cells at logarithmic growth stage were taken, digested with trypsin-EDTA, then collected and counted, and 200 MIA PaCa-2 were inoculated in a 384-well spheroid plate, respectively, and cultured overnight to establish a 3D cell model. A 3.16-fold gradient concentration stock solution of 1000× compound was prepared with DMSO, and diluted 100-fold to 10× compound stock solution with culture medium. On the second day after cell inoculation, 10× compound stock solution was added to each cell culture well, with a final concentration of 1× and a DMSO content of 0.1%. DMSO was used as experimental control (control), and culture medium was used as blank control (blank). After 5 days of compound cell culture, 30 μL of CellTiter-Glo working solution was added to each well, mixed well and incubated for 30 minutes. After standing at room temperature for 30 minutes, 40 μL of the mixed solution was transferred to a white opaque 384-well plate, and the luminescence chemiluminescence value was read with a microplate reader. The cell proliferation inhibition rate IR (%)=(RLU control -RLU compound)/(RLU control−RLU blank)×100% was calculated. The gradient dilution concentration of the compound and the corresponding cell proliferation inhibition rate were fitted by XLFit four-parameter method, and the IC50 value was calculated. The inhibitory activity of the compounds prepared in the above embodiments of the present disclosure on KRAS G12C mutant MIA PaCa-2 cells was 0.0001 μM to 0.5 μM; the inhibitory activity of some compounds on KRAS G12C mutant MIA PaCa-2 cells was 0.001 μM to 0.1 μM or 0.001 μM to 0.05 μM.

[4] = Homo sapiens, MIA PaCa-2, 120 h

| IC50 ([1]; Homo sapiens, NCI-H358, 120 h) [nM] | IC50 ([2]; Homo sapiens, A549, 120 h) [nM] | IC50 [3, 4] [nM] | IC50 [1] [nM] | IC50 [2] [nM] | IC50 [3] [nM] | SMILES |
| --- | --- | --- | --- | --- | --- | --- |
| 39 | > 20000 | 67 | – | – | – | C=CC(=O)N1CCN2C(=O)c3c(N4CCOCC4)nc(-c4c(O)cccc4F)c(Cl)c3OC[C@H]2C1 [Z10, (6aR)-8-acryloyl-4-chloro-3-(2-fluoro-6-hydroxyphenyl)-1-morpholino-6,6a,7,8,9,10-hexahydro-12H-pyrazino[2,1-c]pyrido[3,4-f][1,4]oxazepin-12-one] |
| 42 | 9340 | 64 | – | – | – | C=CC(=O)N1CCN2C(=O)c3c(N4CCCC4)nc(-c4c(O)cccc4F)c(Cl)c3OC[C@H]2C1 [Z11, (6aR)-8-acryloyl-4-chloro-3-(2-fluoro-6-hydroxyphenyl)-1-(pyrrolidin-1-yl)-6,6a,7,8,9,10-hexahydro-12H-pyrazino[2,1-c]pyrido[3,4-f][1,4]oxazepin-12-one] |
| 35 | > 30000 | 63 | – | – | – | C=CC(=O)N1CCN2Cc3c(Nc4c(C)ccnc4C(C)C)nc(-c4c(O)cccc4F)c(Cl)c3OC[C@H]2C1 [Z19, 1-((6aR)-4-chloro-3-(2-fluoro-6-hydroxyphenyl)-1-((2-isopropyl-4-methylpyridin-3-yl)amino)-6a,7,9,10-tetrahydro-12H-pyrazino[2,1-c]pyrido[3,4-f][1,4]oxazepin-8(6H)-yl)prop-2-en-1-one] |
| 50 | > 5000 | 73 | – | – | – | C=CC(=O)N1CCN2C(=O)c3c(N4CCO[C@@H](C)C4)nc(-c4c(O)cccc4F)c(Cl)c3OC[C@H]2C1 [Z23, (6aR)-8-acryloyl-4-chloro-3-(2-fluoro-6-hydroxyphenyl)-1-((S)-2-methylmorpholino)-6,6a,7,8,9,10-hexahydro-12H-pyrazino[2,1-c]pyrido[3,4-f][1,4]oxazepin-12-one] |
| 26 | > 5000 | 36 | – | – | – | C=CC(=O)N1CCN2C(=O)c3c(N4CCO[C@H](C)C4)nc(-c4c(O)cccc4F)c(Cl)c3OC[C@H]2C1 [Z24, (6aR)-8-acryloyl-4-chloro-3-(2-fluoro-6-hydroxyphenyl)-1-((R)-2-methylmorpholino)-6,6a,7,8,9,10-hexahydro-12H-pyrazino[2,1-c]pyrido[3,4-f][1,4]oxazepin-12-one] |
| 58 | > 20000 | 81 | – | – | – | C=CC(=O)N1CCN2C(=O)c3c(N(C)C4CCOCC4)nc(-c4c(O)cccc4F)c(Cl)c3OC[C@H]2C1 [Z25, (6aR)-8-acryloyl-4-chloro-3-(2-fluoro-6-hydroxyphenyl)-1-(methyl(tetrahydro-2H-pyran-4-yl)amino)-6,6a,7,8,9,10-hexahydro-12H-pyrazino[2,1-c]pyrido[3,4-f][1,4]oxazepin-12-one] |
| 33 | > 5000 | 41 | – | – | – | C=CC(=O)N1CCN2C(=O)c3c(N4CCOC[C@H]4C)nc(-c4c(O)cccc4F)c(Cl)c3OC[C@H]2C1 [Z27, (6aR)-8-acryloyl-4-chloro-3-(2-fluoro-6-hydroxyphenyl)-1-((R)-3-methylmorpholino)-6,6a,7,8,9,10-hexahydro-12H-pyrazino[2,1-c]pyrido[3,4-f][1,4]oxazepin-12-one] |
| 30 | 2430 | 77 | – | – | – | C=CC(=O)N1CCN2C(=O)c3c(N[C@@H](C)c4ccccc4)nc(-c4c(O)cccc4F)c(Cl)c3OC[C@H]2C1 [Z29, (6aR)-8-acryloyl-4-chloro-3-(2-fluoro-6-hydroxyphenyl)-1-(((S)-1-phenylethyl)amino)-6,6a,7,8,9,10-hexahydro-12H-pyrazino[2,1-c]pyrido[3,4-f][1,4]oxazepin-12-one] |
| 40 | > 20000 | 41 | – | – | – | C=CC(=O)N1CCN2C(=O)c3c(N4CCN(C)CC4)nc(-c4c(O)cccc4F)c(Cl)c3OC[C@H]2C1 [Z30, (6aR)-8-acryloyl-4-chloro-3-(2-fluoro-6-hydroxyphenyl)-1-(4-methylpiperazin-1-yl)-6,6a,7,8,9,10-hexahydro-12H-pyrazino[2,1-c]pyrido[3,4-f][1,4]oxazepin-12-one] |
| 32 | 4910 | 81 | – | – | – | C=CC(=O)N1CCN2C(=O)c3c(N4CCC5(CCCC5)C4)nc(-c4c(O)cccc4F)c(Cl)c3OC[C@H]2C1 [Z34, (6aR)-8-acryloyl-4-chloro-3-(2-fluoro-6-hydroxyphenyl)-1-(2-azaspiro[4.4]nonan-2-yl)-6,6a,7,8,9,10-hexahydro-12H-pyrazino[2,1-c]pyrido[3,4-f][1,4]oxazepin-12-one] |
| – | – | – | 21 | > 5000 | 36 | C=CC(=O)N1CCN2C(=O)c3c(N4CCC5(CCC5)C4)nc(-c4c(O)cccc4F)c(Cl)c3OC[C@H]2C1 [Z35, (6aR)-8-actyloyl-4-chloro-3-(2-fluoro-6-hydroxyphenyl)-1-(6-azaspiro[3.4]octan-6-yl)-6,6a,7,8,9,10-hexahydro-12H-pyrazino[2,1-c]pyrido[3,4-f][1,4]oxazepin-12-one] |
| 40 | > 1000 | 57 | – | – | – | C=CC(=O)N1CCN2C(=O)c3c(N4CCOC5(CCC5)C4)nc(-c4c(O)cccc4F)c(Cl)c3OC[C@H]2C1 [Z36, (6aR)-8-acryloyl-4-chloro-3-(2-fluoro-6-hydroxyphenyl)-1-(5-oxa-8-azaspiro[3.5]nonan-8-yl)-6,6a,7,8,9,10-hexahydro-12H-pyrazino[2,1-c]pyrido[3,4-f][1,4]oxazepin-12-one] |
